According to US20120129897A1, “BIS HETEROARYL INHIBITORS OF PRO-MATRIX METALLOPROTEINASE ACTIVATION” (priority 2010, published 2012):

What was measured:
MMP9 = molecular target: T1, MMP9 (Rattus norvegicus, UniProt P50282); test: Western blot of pro and active MMP9 in ankles of rats with SCW-induced arthritis; assay type: in vivo; conditions: Day 26, four hours after AM dose; for Abundance of proMMP9 in ankles: mAb-L51/82, FIG. 3A
T1 construct: Pro and active MMP9 were abundantly present in ankles of SCW-induced vehicle-treated rats; from tissue; host or cells: ankle (tibia-tarsus joint) homogenate, female Lewis rats
T1 sequence (P50282 108-708): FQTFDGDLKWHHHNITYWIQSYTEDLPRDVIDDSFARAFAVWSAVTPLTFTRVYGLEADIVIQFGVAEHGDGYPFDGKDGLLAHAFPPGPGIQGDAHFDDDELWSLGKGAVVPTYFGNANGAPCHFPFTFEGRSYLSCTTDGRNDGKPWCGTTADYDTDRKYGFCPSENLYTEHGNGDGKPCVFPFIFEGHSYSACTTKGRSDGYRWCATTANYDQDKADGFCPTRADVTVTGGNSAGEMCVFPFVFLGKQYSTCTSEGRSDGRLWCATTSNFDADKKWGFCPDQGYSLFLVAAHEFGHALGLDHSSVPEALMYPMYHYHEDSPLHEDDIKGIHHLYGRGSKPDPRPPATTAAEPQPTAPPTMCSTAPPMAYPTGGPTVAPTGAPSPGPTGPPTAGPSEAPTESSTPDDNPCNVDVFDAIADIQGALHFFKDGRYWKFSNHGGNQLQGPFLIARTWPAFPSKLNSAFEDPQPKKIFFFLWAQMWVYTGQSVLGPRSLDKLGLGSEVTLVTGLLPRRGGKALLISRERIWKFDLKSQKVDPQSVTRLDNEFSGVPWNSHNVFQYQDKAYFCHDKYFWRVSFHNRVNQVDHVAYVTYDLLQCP
Method: Hind-limbs were skinned, severed just above the tibia-tarsus joint and below the metatarsals, and the tibia-tarsus joints (ankles) were weighed, snap frozen and pulverized on dry ice using a hammer and anvil. The pulverized tissue was suspended in 3 volumes (w:v) of ice-cold homogenization buffer containing 50 mM Tris pH 7.5, 150 mM NaCl, 5 mM EDTA, 1% Triton X100, 0.05% Brij 30, 10% dimethylsulfoxide and Complete EDTA-free Protease Inhibitor Cocktail (Roche Diagnostics). The suspended tissue was homogenized sequentially with a Kinematica AG Polytron and a Dounce homogenizer. Homogenates were centrifuged at 16,000×g for 10 min at 4° C. and the soluble fractions were saved. Dimethylsulfoxide was removed from a portion of each soluble fraction using PD MiniTrap™ G-25 desalting columns (GE Healthcare). Homogenates (0.25 mL), free of DMSO, were diluted with an equal volume of binding buffer (i.e., homogenization buffer without dimethylsufoxide) and adjusted to contain 50 μL of a 50% slurry of gelatin-conjugated sepharose. Following 2 hours of rotation at 4° C. the beads were washed twice in binding buffer and eluted in 100 μL 2×-reducing Laemmli buffer with heating to 95° C. for 5 minutes. Eluates (20 μL) were resolved on 4-12% NuPAGE gels, transferred to 0.45 μm pore-sized nitrocellose and immunoblotted for detection of proMMP9, active MMP9, and other processed forms using mAb-L51/82 and pAb-1246 as described above for detection of MMP9 forms in synoviocyte and HFL-1 cell conditioned media.
Rats in the study reported in Tables 4 and 5 were sacrificed on Day 26 four hours after the AM dose. Ankles harvested from the right-hind-limbs were processed by the method described above. Pro and active MMP9 were abundantly present in ankles of SCW-induced vehicle-treated rats (FIGS. 3A and 3B, lanes 1-3).

proMMP9 = molecular target: T2, proMMP9 (Homo sapiens, UniProt P14780); test: Activation of proMMP9 by human fetal lung fibroblast (HFL-1) cultures (Western blot); assay type: cell-based; conditions: for Signal of 80 kD band (INT*mm^2): pAb-1246
T2 construct: endogenous in cells; host or cells: HFL-1 (ATCC CCL-153), TNFα and neutrophil elastase added
T2 sequence (P14780 20-707 limits assumed): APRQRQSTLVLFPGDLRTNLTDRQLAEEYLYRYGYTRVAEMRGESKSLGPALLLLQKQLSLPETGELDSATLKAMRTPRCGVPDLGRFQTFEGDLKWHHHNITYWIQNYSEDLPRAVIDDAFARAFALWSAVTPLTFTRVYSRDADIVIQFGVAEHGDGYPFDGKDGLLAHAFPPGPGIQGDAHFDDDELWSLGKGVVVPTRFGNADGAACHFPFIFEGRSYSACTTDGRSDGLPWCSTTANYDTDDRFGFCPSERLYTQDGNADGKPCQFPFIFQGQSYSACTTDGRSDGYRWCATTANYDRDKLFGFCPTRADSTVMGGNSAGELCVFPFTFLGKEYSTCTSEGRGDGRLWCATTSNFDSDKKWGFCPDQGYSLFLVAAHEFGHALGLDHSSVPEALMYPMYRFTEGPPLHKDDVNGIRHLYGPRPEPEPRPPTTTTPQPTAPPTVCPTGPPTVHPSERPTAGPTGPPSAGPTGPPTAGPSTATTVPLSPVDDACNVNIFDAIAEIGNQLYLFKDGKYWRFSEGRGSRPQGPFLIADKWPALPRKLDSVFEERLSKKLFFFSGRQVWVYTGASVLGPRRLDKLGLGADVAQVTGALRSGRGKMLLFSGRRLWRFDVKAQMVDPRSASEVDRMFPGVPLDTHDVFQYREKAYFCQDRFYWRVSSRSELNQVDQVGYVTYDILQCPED
Method: Compound-α was assessed additionally for ability to block the maturation of proMMP9 to active MMP9 in cultures of human fetal lung fibroblasts (HFL-1, American Type Culture Collection #CCL-153). Unlike rat synoviocytes, HFL-1 cells were unable to process proMMP9 to the active form without addition of neutrophil elastase. […] Rather, the function of elastase in this assay may be to inactivate tissue inhibitors of matrix metalloproteinases (TIMPs) that repress endogenous pathways of MMP9 activation (Am J Respir Crit Care Med; 1999; 159:1138-46).
HLF-1 were maintained in monolayer culture in DMEM with 10% FCS and were used between passage numbers 5-15. HLF-1 were embedded in collagen gels as described for rat SCW synoviocytes (vida supra). Half mL gels containing 0.4 million cells were dislodged into wells of 12 well Costar plates containing 1 mL/well of DMEM adjusted to contain 0.05% BSA and 100 ng/mL human TNFα (R&D Systems Cat #210-TA/CF). After overnight culture (37° C. and 5% CO2) wells were adjusted to contain an additional 0.5 mL of DMEM containing 0.05% BSA and with or without 13.2 μM Compound-α (final concentration was 3.3 μM Compound-α). Next, cultures were adjusted to contain 30 nM human elastase (Innovative Research). The plates were cultured an additional 72 hrs, at which time MMP9 secreted into the conditioned media was bound to gelatin-sepharose and evaluated by Western blot analysis as described for the rat synoviocyte cultures (vida supra). mAb-51/82 detected three forms of MMP9 in HFL-1 cultures.
A second experiment was performed to determine if the 80 kD form was mature active MMP9 and to determine the potency of Compound-α as an inhibitor of MMP9 maturation in this assay. HFL-1 cells embedded in collagen gels were cultured as described above in the presence of TNFα overnight and the cultures were then adjusted to contain 30 nM elastase and graded concentrations of Compound-α for an additional 72 hrs at which time MMP9 secreted into the conditioned media was bound to gelatin-sepharose and evaluated by Western blot analysis for active MMP9 using pAb-1246 raised against the N-terminal neoepitope of active MMP9 (Table 5). In the absence of Compound-α, pAb-1246 readily detected MMP9 with an electrophoretic mobility of approximately 80 kD. […] Inhibition occurred over a dose range with an IC50 of approximately 0.3 μM Compound-α.

[1] = 3.3 μM, 30 nM elastase, final 72 hrs, mAb-L51/82

Abundance of proMMP9 in ankles (MMP9): did not reduce the abundance of proMMP9 | Abundance of proMMP9 in ankles (MMP9; listed as Compound a): did not reduce the abundance of proMMP-9 | Signal of 80 kD band (INT*mm^2) (proMMP9; 0.12 μM, 30 nM elastase, final 72 hrs): 168211 INT*mm^2 | Signal of 80 kD band (INT*mm^2) (proMMP9; 0.37 μM, 30 nM elastase, final 72 hrs): 45996 INT*mm^2 | Signal of 80 kD band (INT*mm^2) (proMMP9; 1.1 μM, 30 nM elastase, final 72 hrs): 1747 INT*mm^2 | Percent of total signal, 80 kD (proMMP9; [1]): 7% | Percent of total signal, 86 kD (proMMP9; [1]): 47% | Percent of total signal, 100 kD (proMMP9; [1]): 46% | Signal (INT*mm^2), 80 kD (proMMP9; [1]): 6092 INT*mm^2 | Signal (INT*mm^2), 86 kD (proMMP9; [1]): 43147 INT*mm^2 | Signal (INT*mm^2), 100 kD (proMMP9; [1]): 42107 INT*mm^2 | Signal (INT*mm^2), Total (proMMP9; [1]): 91346 INT*mm^2 | Signal of 80 kD band (INT*mm^2) (proMMP9; 3.3 μM, 30 nM elastase, final 72 hrs): 152 INT*mm^2 | Signal of 80 kD band (INT*mm^2) (proMMP9; 10 μM, 30 nM elastase, final 72 hrs): 0 INT*mm^2
Structure (SMILES): Cc1nc(C)c(-c2csc(Nc3cc(S(N)(=O)=O)ccc3OC(C)C)n2)s1 [Compound-α, 3-(2′,4′-Dimethyl-[4,5′]bithiazolyl-2-ylamino)-4-isopropoxy-benzenesulfonamide.HBr]
Active 80 kD form of MMP9 in ankles (MMP9; pAb-1246 and mAb-L51/82, FIG. 3): notable reduction in the active 80 kD form of MMP9 | Processing of MMP9 forms by HFL-1 cells (proMMP9; 3.3 μM, mAb-L51/82): the formation of the 80 kD form was suppressed
